Experimental data published in PMC9241695, “Selective Metal Chelation by a Thiosemicarbazone Derivative Interferes with Mitochondrial Respiration and Ribosome Biogenesis in Candida albicans” (Microbiology Spectrum, 2022).
Values after ≈ are worked out from the molar mass of the structure shown.

What was measured:
Experiment in all cases: Antifungal susceptibility testing, microbroth dilution MIC
Assay type in all cases: cell-based
C. neoformans H99 = conditions: Cryptococcus neoformans, H99, 48 h, read-out: MIC (μg/mL) against fungi H99
From the text: (§1) Compound library. The thiosemicarbazone derivatives Triapine and COTI-2 were purchased from Med Chem Express (MCE). The other 87 thiosemicarbazones used in this study were previously synthesized by our collaborators (1, 2). Their structures are shown in Table 1 and Table S1 to help the reader clearly understand the relationship between structure and activity.
(§2) Strains and culture conditions. Clinically derived C. albicans isolates, including G5, F5, and Gu5, were kindly provided by Professor Joachim Morschhäuser of the University of Würzburg. Other clinical C. albicans isolates were kindly donated by Professor Qingguo Qi of Shandong University and Qianfoshan Hospital of Shandong Province Other Candida strains were obtained from Jinan Central Hospital.
(§3) The zap1 mutant and its complemented strain were kindly provided by Professor Aaron P. Mitchell of Carnegie Mellon University (3). The C. neoformans strains used in this study was kindly donated by Professor Guojian Liao of Southwest University and A. fumigatus strain used in this study was provided by Professor Ling Lu of Nanjing Normal University. […]
(§4) Antifungal susceptibility testing. To determine in vitro antifungal activities, the microbroth dilution method was carried out in RPMI1640 medium according to the guidelines of the Clinical and Laboratory Standards Institute (4, 5). The initial concentration in RPMI1640 medium was 1 × 10^3 CFU/mL for the C. albicans and C. neoformans suspensions but 1 × 10^4 CFU/mL for A. fumigatus. The range of final drug concentrations was 0.0156–64 μg/mL. The plates were incubated at35°C for 24 […]
(§5) h (for C. albicans, C. krusei, C. tropicalis, C. parapsilosis) or 48 h (for C. neoformans, A. fumigatus). The MIC was determined based on visible growth inhibition compared with the control. All experiments were performed in duplicate. […]

A. fumigatus AF293 = conditions: Aspergillus fumigatus, AF293, 48 h, read-out: MIC (μg/mL) against fungi AF293
From the text: as §1, §2, §3, §4, §5

C. albicans SC5314 = conditions: Candida albicans, SC5314, 24 h, read-out: MIC (μg/mL) against fungi SC5314
From the text: as §1, §2
as §3, with “University. Before in vitro and in vivo experiments, all C. albicans strains were grown on YPD agar plates. After culturing at 30°C for 24 h, colonies of each strain were cultured in liquid YPD medium at 30°C with continuous shaking” for “University.”
as §4, §5

Row | Compound | MIC (C. neoformans H99) | MIC (A. fumigatus AF293) | MIC (C. albicans SC5314)
1 | C/C(=N\NC(=S)Nc1ccccc1)c1ccccn1 [Compound 19ac] | 0.25 µg/mL (≈ 0.925 µM) | 16 µg/mL (≈ 59.2 µM) | 2 µg/mL (≈ 7.4 µM)
2 | S=C(N/N=C/c1ccccn1)N1CCOCC1 [Compound 19ao] | 0.5 µg/mL (≈ 2 µM) | 8 µg/mL (≈ 32 µM) | 2 µg/mL (≈ 7.99 µM)
